Measured values as given in article PMC9145193 (Molecules, 2022).

The compounds below were run against T1, AChE enzyme from electrophorus electricus (eeAChE) (Electrophorus electricus, UniProt O42275) (assay: biochemical). Settings: mean ± SEM from three independent experiments.
T1 construct: purchased Merck C3389
Description: Donepezil was used as a positive control.
AChE activity was measured by the […] using AChE enzyme from electrophorus electricus (eeAChE) (C3389, Merck, Kenilworth, NJ, USA). AChE solution (2 U/mL) was prepared with 0.1 M phosphate buffer (pH 8.0) firstly. Varied concentrations of test compounds (20 μL), 1 mM 5′-dithiobis (2-nitrobenzoic acid) (DTNB) solution (100 μL), and AChE solution (40 μL) were added in order to each well of a 96-well plate. After incubation for 15 min at 37 °C, the reaction was initiated by adding 20 μL of acetylthiocholine iodide (1 mM) to the mixed solution. The absorbance of each plate was instantly measured at 405 nm using a microplate reader. The inhibition of each compound was estimated using the formula (1−Ai/Ac) × 100, where Ai and Ac represent the absorbance of AChE in the presence and absence of inhibitors, respectively. Each experiment was replicated three times. Plotting curves of log concentration via percentage of inhibition, the IC50 values of all tested compounds were graphically analyzed (Graph Pad Prism 8.0).

T1 sequence (O42275 24-633): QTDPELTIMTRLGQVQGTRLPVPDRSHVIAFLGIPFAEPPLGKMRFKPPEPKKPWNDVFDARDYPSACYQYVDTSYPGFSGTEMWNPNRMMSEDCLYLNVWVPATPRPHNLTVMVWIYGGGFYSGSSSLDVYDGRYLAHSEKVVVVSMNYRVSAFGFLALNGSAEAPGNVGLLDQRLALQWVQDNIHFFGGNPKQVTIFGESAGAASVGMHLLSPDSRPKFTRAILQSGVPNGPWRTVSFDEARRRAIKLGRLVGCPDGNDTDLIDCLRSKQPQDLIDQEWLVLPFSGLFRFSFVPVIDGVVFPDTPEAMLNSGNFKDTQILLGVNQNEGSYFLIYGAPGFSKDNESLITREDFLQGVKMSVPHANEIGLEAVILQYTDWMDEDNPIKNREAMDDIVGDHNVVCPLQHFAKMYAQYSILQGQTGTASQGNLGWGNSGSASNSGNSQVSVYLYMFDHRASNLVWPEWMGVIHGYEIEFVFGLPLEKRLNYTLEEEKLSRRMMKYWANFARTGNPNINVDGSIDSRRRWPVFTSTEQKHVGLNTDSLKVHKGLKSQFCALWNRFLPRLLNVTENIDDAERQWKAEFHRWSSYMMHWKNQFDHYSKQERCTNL

Going from `COc1cc2c(cc1OC)C(=O)/C(=C/c1cc[n+](Cc3ccccc3C)cc1C(N)=O)OC2` [13k, (Z)-3-Carbamoyl-4-((6,7-dimethoxy-4-oxoisochroman-3-ylidene)methyl)-1-(2-methylbenzyl)pyridin-1-ium Bromide] to `COc1cc2c(cc1OC)C(=O)/C(=C/c1cc[n+](Cc3ccccc3C)cc1C(C)=O)OC2` [10k, (Z)-3-Acetyl-4-((6,7-dimethoxy-4-oxoisochroman-3-ylidene)methyl)-1-(2-methylbenzyl)pyridin-1-ium Bromide], the IC50 falls from 12.1 ± 0.9 nM to 4.8 ± 0.26 nM (2.5-fold). The second is the more potent here.

`COc1cc2c(cc1OC)C(=O)/C(=C/c1cc[n+](Cc3ccc(C)cc3)cc1C(C)=O)OC2` [10m, (Z)-3-Acetyl-4-((6,7-dimethoxy-4-oxoisochroman-3-ylidene)methyl)-1-(4-methylbenzyl)pyridin-1-ium Bromide] and `COc1cc2c(cc1OC)C(=O)/C(=C/c1cc[n+](Cc3ccc(C)cc3)cc1C(N)=O)OC2` [13m, (Z)-3-Carbamoyl-4-((6,7-dimethoxy-4-oxoisochroman-3-ylidene)methyl)-1-(4-methylbenzyl)pyridin-1-ium Bromide] are within 1.5-fold of each other in IC50: 54.1 ± 3.22 nM for the first, 42.47 ± 0.25 nM for the second.

First: COc1cc2c(cc1OC)C(=O)/C(=C/c1cc[n+](Cc3ccccc3)cc1C(N)=O)OC2 [13a, (Z)-1-Benzyl-3-carbamoyl-4-((6,7-dimethoxy-4-oxoisochroman-3-ylidene)methyl)pyridin-1-ium Bromide]
Second: COc1cc2c(cc1OC)C(=O)/C(=C/c1cc[n+](Cc3ccccc3Br)cc1C(N)=O)OC2 [13h, (Z)-1-(2-Bromobenzyl)-3-carbamoyl-4-((6,7-dimethoxy-4-oxoisochroman-3-ylidene)methyl)pyridin-1-ium Bromide]
The IC50 of the first is 2.5-fold lower: 8.63 ± 0.06 nM for the first, 21.7 ± 0.32 nM for the second. The first is the more potent here.

`COc1cc2c(cc1OC)C(=O)/C(=C/c1cc[n+](Cc3cccc(F)c3)cc1C(N)=O)OC2` [13c, (Z)-3-Carbamoyl-4-((6,7-dimethoxy-4-oxoisochroman-3-ylidene)methyl)-1-(3-fluorobenzyl)pyridin-1-ium Bromide] and `COc1cc2c(cc1OC)C(=O)/C(=C/c1cc[n+](Cc3cccc(F)c3)cc1C(C)=O)OC2` [10c, (Z)-3-Acetyl-4-((6,7-dimethoxy-4-oxoisochroman-3-ylidene)methyl)-1-(3-fluorobenzyl)pyridin-1-ium Bromide] are within 1.5-fold of each other in IC50: 6.02 ± 0.08 nM for the first, 4.03 ± 0.23 nM for the second.

Going from `COc1cc2c(cc1OC)C(=O)/C(=C/c1cc[n+](Cc3ccccc3[N+](=O)[O-])cc1C(C)=O)OC2` [10n, (Z)-3-Acetyl-4-((6,7-dimethoxy-4-oxoisochroman-3-ylidene)methyl)-1-(2-nitrobenzyl)pyridin-1-ium Bromide] to `COc1cc2c(cc1OC)C(=O)/C(=C/c1cc[n+](Cc3ccccc3Br)cc1C(C)=O)OC2` [10h, (Z)-3-Acetyl-1-(2-bromobenzyl)-4-((6,7-dimethoxy-4-oxoisochroman-3-ylidene)methyl)pyridin-1-ium Bromide], the IC50 falls from 13.6 ± 0.72 nM to 6.22 ± 0.05 nM (2.2-fold).

First: COc1cc2c(cc1OC)C(=O)/C(=C/c1cc[n+](Cc3cccc(C(F)(F)F)c3)cc1C(C)=O)OC2 [10r, (Z)-3-Acetyl-4-((6,7-dimethoxy-4-oxoisochroman-3-ylidene)methyl)-1-(3-(trifluoromethyl)benzyl)pyridin-1-ium Bromide]
Second: COc1cc2c(cc1OC)C(=O)/C(=C/c1cc[n+](Cc3cccc(C(F)(F)F)c3)cc1C(N)=O)OC2 [13o, (Z)-3-Carbamoyl-4-((6,7-dimethoxy-4-oxoisochroman-3-ylidene)methyl)-1-(3-(trifluoromethyl)benzyl)pyridin-1-ium Bromide]
The IC50 of the first is 1.7-fold lower: 25.3 ± 2.2 nM for the first, 43 ± 0.44 nM for the second.

Going from `COc1cc2c(cc1OC)C(=O)/C(=C/c1cc[n+](Cc3cccc(Cl)c3)cc1C(C)=O)OC2` [10f, (Z)-3-Acetyl-1-(3-chlorobenzyl)-4-((6,7-dimethoxy-4-oxoisochroman-3-ylidene)methyl)pyridin-1-ium Bromide] to `COc1cc2c(cc1OC)C(=O)/C(=C/c1cc[n+](Cc3cccc(Cl)c3)cc1C(N)=O)OC2` [13f, (Z)-3-Carbamoyl-1-(3-chlorobenzyl)-4-((6,7-dimethoxy-4-oxoisochroman-3-ylidene)methyl)pyridin-1-ium Bromide], the IC50 rises from 10.3 ± 1.08 nM to 26.7 ± 0.28 nM (2.6-fold).

First: COc1cc2c(cc1OC)C(=O)/C(=C/c1cc[n+](Cc3ccc(Cl)cc3)cc1C(N)=O)OC2 [13g, (Z)-3-Carbamoyl-1-(4-chlorobenzyl)-4-((6,7-dimethoxy-4-oxoisochroman-3-ylidene)methyl)pyridin-1-ium Bromide]
Second: COc1cc2c(cc1OC)C(=O)/C(=C/c1cc[n+](Cc3ccc(Cl)cc3)cc1C(C)=O)OC2 [10g, (Z)-3-Acetyl-1-(4-chlorobenzyl)-4-((6,7-dimethoxy-4-oxoisochroman-3-ylidene)methyl)pyridin-1-ium Bromide]
The IC50 of the first is 2.8-fold higher: 188 ± 4.78 nM for the first, 67.3 ± 2.68 nM for the second. The second is the more potent here.

Compared with `COc1cc2c(cc1OC)C(=O)/C(=C/c1cc[n+](Cc3cccc(Br)c3)cc1C(C)=O)OC2` [10i, (Z)-3-Acetyl-1-(3-bromobenzyl)-4-((6,7-dimethoxy-4-oxoisochroman-3-ylidene)methyl)pyridin-1-ium Bromide], `COc1cc2c(cc1OC)C(=O)/C(=C/c1cc[n+](Cc3cccc(Br)c3)cc1C(N)=O)OC2` [13i, (Z)-1-(3-Bromobenzyl)-3-carbamoyl-4-((6,7-dimethoxy-4-oxoisochroman-3-ylidene)methyl)pyridin-1-ium Bromide] is 3.5-fold higher in IC50: 11 ± 0.82 nM for the first, 38.1 ± 0.92 nM for the second.

`COc1cc2c(cc1OC)C(=O)/C(=C/c1cc[n+](Cc3ccc(F)cc3)cc1C(N)=O)OC2` [13d, (Z)-3-Carbamoyl-4-((6,7-dimethoxy-4-oxoisochroman-3-ylidene)methyl)-1-(4-fluorobenzyl)pyridin-1-ium Bromide] and `COc1cc2c(cc1OC)C(=O)/C(=C/c1cc[n+](Cc3ccc(F)cc3)cc1C(C)=O)OC2` [10d, (Z)-3-Acetyl-4-((6,7-dimethoxy-4-oxoisochroman-3-ylidene)methyl)-1-(4-fluorobenzyl)pyridin-1-ium Bromide] are within 1.5-fold of each other in IC50: 8.25 ± 0.13 nM for the first, 7.69 ± 0.35 nM for the second.

Compared with `COc1cc2c(cc1OC)C(=O)/C(=C/c1cc[n+](Cc3ccccc3C(F)(F)F)cc1C(N)=O)OC2` [13n, (Z)-3-Carbamoyl-4-((6,7-dimethoxy-4-oxoisochroman-3-ylidene)methyl)-1-(2-(trifluoromethyl)benzyl)pyridin-1-ium Bromide], `COc1cc2c(cc1OC)C(=O)/C(=C/c1cc[n+](Cc3ccccc3C(F)(F)F)cc1C(C)=O)OC2` [10q, (Z)-3-Acetyl-4-((6,7-dimethoxy-4-oxoisochroman-3-ylidene)methyl)-1-(2-(trifluoromethyl)benzyl)pyridin-1-ium Bromide] is 1.6-fold lower in IC50: 30.7 ± 0.71 nM for the first, 18.9 ± 1.16 nM for the second.

First: COc1cc2c(cc1OC)C(=O)/C(=C/c1cc[n+](Cc3ccc([N+](=O)[O-])cc3)cc1C(C)=O)OC2 [10p, (Z)-3-Acetyl-4-((6,7-dimethoxy-4-oxoisochroman-3-ylidene)methyl)-1-(4-nitrobenzyl)pyridin-1-ium Bromide]
Second: COc1cc2c(cc1OC)C(=O)/C(=C/c1cc[n+](Cc3cccc([N+](=O)[O-])c3)cc1C(C)=O)OC2 [10o, (Z)-3-Acetyl-4-((6,7-dimethoxy-4-oxoisochroman-3-ylidene)methyl)-1-(3-nitrobenzyl)pyridin-1-ium Bromide]
The IC50 of the first is 5.8-fold higher: 129 ± 2.68 nM for the first, 22.4 ± 1.25 nM for the second. The second is the more potent here.

`COc1cc2c(cc1OC)C(=O)/C(=C/c1cc[n+](Cc3ccc(Br)cc3)cc1C(N)=O)OC2` [13j, (Z)-1-(4-Bromobenzyl)-3-carbamoyl-4-((6,7-dimethoxy-4-oxoisochroman-3-ylidene)methyl)pyridin-1-ium Bromide] and `COc1cc2c(cc1OC)C(=O)/C(=C/c1cc[n+](Cc3ccc(C(F)(F)F)cc3)cc1C(N)=O)OC2` [13p, (Z)-3-Carbamoyl-4-((6,7-dimethoxy-4-oxoisochroman-3-ylidene)methyl)-1-(4-(trifluoromethyl)benzyl)pyridin-1-ium Bromide] are within 1.5-fold of each other in IC50: 422 ± 5.92 nM for the first, 441 ± 7.82 nM for the second.

Compared with `COc1cc2c(cc1OC)C(=O)/C(=C/c1cc[n+](Cc3ccccc3Cl)cc1C(C)=O)OC2` [10e, (Z)-3-Acetyl-1-(2-chlorobenzyl)-4-((6,7-dimethoxy-4-oxoisochroman-3-ylidene)methyl)pyridin-1-ium Bromide], `COc1cc2c(cc1OC)C(=O)/C(=C/c1cc[n+](Cc3ccccc3Cl)cc1C(N)=O)OC2` [13e, (Z)-3-Carbamoyl-1-(2-chlorobenzyl)-4-((6,7-dimethoxy-4-oxoisochroman-3-ylidene)methyl)pyridin-1-ium Bromide] is 3-fold higher in IC50: 5.86 ± 0.86 nM for the first, 17.6 ± 0.3 nM for the second. The first is the more potent here.

Compared with `COc1cc2c(cc1OC)C(=O)/C(=C/c1cc[n+](Cc3cccc(C)c3)cc1C(C)=O)OC2` [10l, (Z)-3-Acetyl-4-((6,7-dimethoxy-4-oxoisochroman-3-ylidene)methyl)-1-(3-methylbenzyl)pyridin-1-ium Bromide], `COc1cc2c(cc1OC)C(=O)/C(=C/c1cc[n+](Cc3cccc(C)c3)cc1C(N)=O)OC2` [13l, (Z)-3-Carbamoyl-4-((6,7-dimethoxy-4-oxoisochroman-3-ylidene)methyl)-1-(3-methylbenzyl)pyridin-1-ium Bromide] is 2.5-fold higher in IC50: 6.61 ± 0.81 nM for the first, 16.26 ± 0.12 nM for the second. The first is the more potent here.

First: COc1cc2c(cc1OC)C(=O)/C(=C/c1cc[n+](Cc3ccc(C(F)(F)F)cc3)cc1C(C)=O)OC2 [10s, (Z)-3-Acetyl-4-((6,7-dimethoxy-4-oxoisochroman-3-ylidene)methyl)-1-(4-(trifluoromethyl)benzyl)pyridin-1-ium Bromide]
Second: COc1cc2c(cc1OC)C(=O)/C(=C/c1cc[n+](Cc3ccccc3F)cc1C(C)=O)OC2 [10b, (Z)-3-Acetyl-4-((6,7-dimethoxy-4-oxoisochroman-3-ylidene)methyl)-1-(2-fluorobenzyl)pyridin-1-ium Bromide]
The IC50 of the first is 98-fold higher: 326 ± 9.01 nM for the first, 3.32 ± 0.21 nM for the second.
